This assay relates to Neisseria gonorrhoeae. The experiment in a line: EC50 determination: plate-based broth growth assay (absorbance at 600 nm) of Neisseria gonorrhoeae. Type of assay: cell-based. The note with it: absorbance 600 nm after 20 hours at 37° C./5% CO2, read-out: IC50 (Inhibitory concentration) against Neisseria gonorrhoeae. A digest of the protocol: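 Mid-log culture diluted to ~10^5 cells/ml as inoculum and grown 20 hours at 37° C./5% CO2 across a 10-point compound dilution series. Growth read as absorbance at 600 nm; EC50 taken from transformed data as the concentration giving 50% response relative to no-compound controls.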

Consider `Clc1ccc2nc(Nc3nnc[nH]3)oc2c1` [Example 150, 6-Chloro-N-(4H-1,2,4-triazol-3-yl)benzo[d]oxazol-2-amine], for which the IC50 was ≤ 1000 nM.

As to `Clc1ccc2nc(Nc3nncs3)oc2c1` [Example 151, 6-Chloro-N-(1,3,4-thiadiazol-2-yl)benzo[d]oxazol-2-amine], the IC50 is ≤ 1000 nM. As for `Clc1cc2nc(Nc3nnco3)oc2cc1Cl` [Example 152, 5,6-Dichloro-N-(1,3,4-oxadiazol-2-yl)benzo[d]oxazol-2-amine], the IC50 is ≤ 100 nM. In the case of `Cc1nnc(Nc2nc3cc(C(F)(F)F)c(Cl)cc3[nH]2)[nH]1` [Example 153, 6-Chloro-N-(5-methyl-4H-1,2,4-triazol-3-yl)-5-(trifluoromethyl)-1H-benzo[d]imidazol-2-amine], the IC50 is ≤ 10000 nM. On to `Cc1nnc(Nc2nc3c(C)nccc3o2)o1` [Example 154, 4-Methyl-N-(5-methyl-1,3,4-oxadiazol-2-yl)oxazolo[4,5-c]pyridin-2-amine], for which the IC50 was ≤ 10000 nM. For the compound `CN1CCc2nc(Nc3nc4cc(C(F)(F)F)ccc4o3)oc2C1` [Example 155, 5-Methyl-N-(5-(trifluoromethyl)benzo[d]oxazol-2-yl)-4,5,6,7-tetrahydrooxazolo[5,4-c]pyridin-2-amine], the IC50 is ≤ 1000 nM. Regarding `CN1CCc2oc(Nc3nc4cc(C(F)(F)F)ccc4o3)nc2C1` [Example 156, 5-Methyl-N-(5-(trifluoromethyl)benzo[d]oxazol-2-yl)-4,5,6,7-tetrahydrooxazolo[4,5-c]pyridin-2-amine], the IC50 was ≤ 1000 nM. As for `FC(F)(F)c1ccc2oc(Nc3nc4ccccc4o3)nc2c1` [Example 158, N-(Benzo[d]oxazol-2-yl)-5-(trifluoromethyl) benzo[d]oxazol-2-amine], the IC50 was ≤ 100 nM.

`Fc1ccc2oc(Nc3nc4cnccc4o3)nc2c1` [Example 160, N-(5-Fluorobenzo[d]oxazol-2-yl)oxazolo[4,5-c]pyridin-2-amine]: the IC50 is ≤ 100000 nM.

Regarding `FC(F)(F)c1cc2oc(Nc3nc4cnccc4o3)nc2cn1` [Example 161, N-(Oxazolo[4,5-c]pyridin-2-yl)-6-(trifluoromethyl)oxazolo[4,5-c]pyridin-2-amine], the IC50 was ≤ 100000 nM. With `Clc1ccc2oc(Nc3nc4ccccc4o3)nc2c1` [Example 162, N-(Benzo[d]oxazol-2-yl)-5-chlorobenzo[d] oxazol-2-amine], the IC50 was ≤ 100 nM. For `FC(F)(F)c1cc2oc(Nc3nc4ccccc4o3)nc2cn1` [Example 163, N-(Benzo[d]oxazol-2-yl)-6-(trifluoromethyl) oxazolo[4,5-c]pyridin-2-amine], the IC50 is ≤ 100 nM. The figure for `Clc1ccc2oc(Nc3nc4cnccc4o3)nc2c1` [Example 164, N-(5-Chlorobenzo[d]oxazol-2-yl)oxazolo[4,5-c]pyridin-2-amine] is ≤ 100 nM. Turning to `FC(F)(F)c1cc2oc(Nc3nc4ccccc4[nH]3)nc2cn1` [Example 166, N-(1H-Benzo[d]imidazol-2-yl)-6-(trifluoromethyl) oxazolo[4,5-c]pyridin-2-amine], the IC50 was ≤ 1000 nM. As for `FC(F)(F)c1ccc2oc(Nc3nc4ccccc4[nH]3)nc2c1` [Example 167, N-(1H-Benzo[d]imidazol-2-yl)-5-(trifluoromethyl) benzo[d]oxazol-2-amine], the IC50 was ≤ 1000 nM. `Clc1ccc2[nH]c(Nc3nc4cnccc4o3)nc2c1` [Example 168, N-(5-Chloro-1H-benzo[d]imidazol-2-yl)oxazolo [4,5-c]pyridin-2-amine]: the IC50 is ≤ 1000 nM. For `CN(c1nc2ccccc2o1)c1nc2cnc(C(F)(F)F)cc2o1` [Example 169, N-(benzo[d]oxazol-2-yl)-N-methyl-6-(trifluoromethyl)oxazolo[4,5-c]pyridin-2-amine], the IC50 was ≤ 100000 nM.

For `Cc1nccc2oc(Nc3nc4ccccc4o3)nc12` [Example 171, N-(Benzo[d]oxazol-2-yl)-4-methyloxazolo[4,5-c]pyridin-2-amine], the IC50 is ≤ 1000 nM. Consider `Cc1cc(Nc2nc3ccc(Cl)cc3o2)no1` [Example 172, 6-Chloro-N-(5-methylisoxazol-3-yl)benzo[d]oxazol-2-amine], for which the IC50 was ≤ 1000 nM. With `Clc1ccc2oc(Nc3cscn3)nc2c1` [Example 173, 5-Chloro-N-(thiazol-4-yl)benzo[d]oxazol-2-amine], the IC50 is ≤ 10000 nM.

In the case of `Fc1cc2nc(Nc3nnco3)oc2cc1OC(F)(F)F` [Example 174, 5-Fluoro-N-(1,3,4-oxadiazol-2-yl)-6-(trifluoromethoxy)benzo[d]oxazol-2-amine], the IC50 was ≤ 100 nM. `Clc1ccc2nc(Nc3nnc(C4CC4)o3)oc2c1` [Example 175, 6-Chloro-N-(5-cyclopropyl-1,3,4-oxadiazol-2-yl)benzo[d]ox-azol-2-amine]: the IC50 is ≤ 100 nM. The figure for `Fc1cc(Cl)cc2oc(Nc3nnco3)nc12` [Example 176, 6-Chloro-4-fluoro-N-(1,3,4-oxadiazol-2-yl)benzo[d]ox-azol-2-amine] is ≤ 1000 nM; for `Oc1ccc2nc(Nc3nnco3)oc2c1` [Example 177, 2-((1,3,4-Oxadiazol-2-yl)amino)ben-zo[d]oxazol-6-ol] it is ≤ 10000 nM. For `COC(=O)c1ccc2nc(Nc3nnco3)oc2c1` [Example 178, Methyl 2-((1,3,4-oxadiazol-2-yl)amino)ben-zo[d]oxazole-6-carboxylate], the IC50 is ≤ 1000 nM. On to `Brc1ccc2nc(Nc3nnco3)oc2c1` [Example 179, 6-Bromo-N-(1,3,4-oxadiazol-2-yl)benzo[d]ox-azol-2-amine], for which the IC50 was ≤ 100 nM.

As for `c1nnc(Nc2nc3ccc(C4CC4)cc3o2)o1` [Example 180, 6-Cyclopropyl-N-(1,3,4-oxadiazol-2-yl)benzo[d]ox-azol-2-amine], the IC50 was ≤ 1000 nM.

As to `OCc1ccc2nc(Nc3nnco3)oc2c1` [Example 181, (2-((1,3,4-Oxadiazol-2-yl)amino)ben-zo[d]oxazol-6-yl)methanol], the IC50 was ≤ 10000 nM. As to `O=C(O)c1nc(Nc2nc3ccc(Cl)cc3o2)co1` [Example 182, 4-((6-chlorobenzo [d]oxazol-2-yl)amino)oxa-zole-2-carboxylic acid], the IC50 is ≤ 100000 nM. With `c1nnc(Nc2nc3ccc(N4CCCC4)cc3o2)o1` [Example 183, N-(1,3,4-oxadiazol-2-yl)-6-(pyrrolidin-1-yl)benzo[d]ox-azol-2-amine], the IC50 was ≤ 1000 nM.

As to `c1nnc(Nc2nc3ccc(N4CCCCC4)cc3o2)o1` [Example 184, N-(1,3,4-Oxadiazol-2-yl)-6-(piperidin-1-yl)benzo[d]ox-azol-2-amine], the IC50 is ≤ 1000 nM. `c1nnc(Nc2nc3ccc(N4CCOCC4)cc3o2)o1` [Example 185, 6-Morpholino-N-(1,3,4-oxadiazol-2-yl)benzo[d]ox-azol-2-amine]: the IC50 is ≤ 10000 nM. On to `O=[N+]([O-])c1ccc2nc(Nc3nnco3)oc2c1` [Example 186, 6-Nitro-N-(1,3,4-oxadiazol-2-yl)benzo[d]ox-azol-2-amine], for which the IC50 is ≤ 10000 nM. The figure for `Cc1cc2oc(Nc3nnco3)nc2cc1Cl` [Example 187, 5-Chloro-6-methyl-N-(1,3,4-oxadiazol-2-yl)benzo[d]ox-azol-2-amine] is ≤ 100 nM; for `Cc1cc2nc(Nc3nnco3)oc2cc1Cl` [Example 188, 6-Chloro-5-methyl-N-(1,3,4-oxadiazol-2-yl)benzo[d]ox-azol-2-amine] it is ≤ 100 nM. In the case of `Cc1cc(Cl)cc2oc(Nc3nnco3)nc12` [Example 189, 6-Chloro-4-methyl-N-(1,3,4-oxadiazol-2-yl)benzo[d]ox-azol-2-amine], the IC50 is ≤ 100 nM.

On to `COc1cc2oc(Nc3nnco3)nc2cc1Cl` [Example 190, 5-Chloro-6-methoxy-N-(1,3,4-oxadiazol-2-yl)benzo[d]ox-azol-2-amine], for which the IC50 was ≤ 100 nM. In the case of `FC(F)(F)Oc1cc2oc(Nc3nnco3)nc2cc1Cl` [Example 191], the IC50 is ≤ 100 nM.

`O=C(O)c1ccc2nc(Nc3nnco3)oc2c1` [Example 192, 2-((1,3,4-oxadiazol-2-yl)amino)benzo[d]oxazole-6-carboxylic acid]: the IC50 was ≤ 10000 nM. With `COCCOc1ccc2nc(Nc3nnco3)oc2c1` [Example 193, 6-(2-methoxyethoxy)-N-(1,3,4-oxadiazol-2-yl)benzo[d]oxazol-2-amine], the IC50 was ≤ 1000 nM. Regarding `C#Cc1nnc(Nc2nc3ccc(Cl)cc3o2)o1` [Example 194, 6-Chloro-N-(5-ethynyl-1,3,4-oxadiazol-2-yl)benzo[d]oxazol-2-amine], the IC50 was ≤ 100 nM. On to `Nc1ccc2nc(Nc3nnco3)oc2c1` [Example 195, N^2-(1,3,4-oxadiazol-2-yl)benzo[d]oxazole-2,6-diamine], for which the IC50 was ≤ 10000 nM. As to `CC(C)Oc1ccc2nc(Nc3nnco3)oc2c1` [Example 196, 6-Isopropoxy-N-(1,3,4-oxadiazol-2-yl)benzo[d]oxazol-2-amine], the IC50 is ≤ 100000 nM.

On to `Cc1cc2oc(Nc3nnco3)nc2cc1F` [Example 197, 5-Fluoro-6-methyl-N-(1,3,4-oxadiazol-2-yl)benzo[d]oxazol-2-amine], for which the IC50 is ≤ 100 nM. Take `Clc1ccc2nc(Nc3nnc(N4CCCC4)o3)oc2c1` [Example 198, 6-Chloro-N-(5-(pyrrolidin-1-yl)-1,3,4-oxadiazol-2-yl)benzo[d]oxa-zol-2-amine]: the IC50 was ≤ 10000 nM.

In the case of `Clc1ccc2nc(Nc3nnc(C4CCOC4)o3)oc2c1` (stereo not drawn) [Example 199, 6-Chloro-N-(5-(tetrahydrofuran-3-yl)-1,3,4-oxadiazol-2-yl)benzo[d]oxa-zol-2-amine], the IC50 is ≤ 1000 nM. The figure for `NC(=O)c1nnc(Nc2nc3ccc(Cl)cc3o2)o1` [Example 200, 5-((6-Chlorobenzo[d]oxazol-2-yl)amino)-1,3,4-oxadiazole-2-carboxamide] is ≤ 100000 nM; for `NC(=O)c1nnc(Nc2nc3ccc(F)cc3o2)o1` [Example 201, 5-((6-Fluorobenzo[d]oxazol-2-yl)amino)-1,3,4-oxadiazole-2-carboxamide] it is ≤ 100000 nM.

Source of the values: patent US20190194179A1, “ANTIBIOTIC COMPOUNDS” (DISCUVA LTD., priority 2016, published 2019).
